Results: BigSolDB 2.1

## CC1=C(/C=C/C(C)=C/C=C/C(C)=C/C=C/C=C(C)/C=C/C=C(C)/C=C/C2=C(C)C(=O)CCC2(C)C)C(C)(C)CCC1=O
In acetone, 293.15 K
  solubility (mole fraction): 1.95e-05
In acetone, 298.15 K
  solubility (mole fraction): 2.45e-05
In acetone, 303.15 K
  solubility (mole fraction): 3.1e-05
In acetone, 308.15 K
  solubility (mole fraction): 3.72e-05
In acetone, 313.15 K
  solubility (mole fraction): 4.22e-05
In acetone, 318.15 K
  solubility (mole fraction): 4.94e-05
In cyclohexane, 293.15 K
  solubility (mole fraction): 1.27e-05
In cyclohexane, 303.15 K
  solubility (mole fraction): 1.33e-05
In cyclohexane, 313.15 K
  solubility (mole fraction): 1.38e-05
In cyclohexane, 323.15 K
  solubility (mole fraction): 1.48e-05
In cyclohexane, 333.15 K
  solubility (mole fraction): 1.71e-05
In cyclohexane, 343.15 K
  solubility (mole fraction): 2.06e-05
In ethanol, 293.15 K
  solubility (mole fraction): 4.5e-06
In ethanol, 303.15 K
  solubility (mole fraction): 5.6e-06
In ethanol, 313.15 K
  solubility (mole fraction): 6.35e-06
In ethanol, 323.15 K
  solubility (mole fraction): 7.48e-06
In ethanol, 333.15 K
  solubility (mole fraction): 8.72e-06
In ethanol, 343.15 K
  solubility (mole fraction): 9.9e-06
In ethyl acetate, 293.15 K
  solubility (mole fraction): 2.71e-05
In ethyl acetate, 303.15 K
  solubility (mole fraction): 3.67e-05
In ethyl acetate, 313.15 K
  solubility (mole fraction): 5.43e-05
In ethyl acetate, 323.15 K
  solubility (mole fraction): 8.58e-05
In ethyl acetate, 333.15 K
  solubility (mole fraction): 0.000144
In ethyl acetate, 343.15 K
  solubility (mole fraction): 0.000256
In methanol, 293.15 K
  solubility (mole fraction): 2.61e-06
In methanol, 303.15 K
  solubility (mole fraction): 2.93e-06
In methanol, 313.15 K
  solubility (mole fraction): 3.27e-06
In methanol, 323.15 K
  solubility (mole fraction): 3.77e-06
In methanol, 333.15 K
  solubility (mole fraction): 4.53e-06
In toluene, 293.15 K
  solubility (mole fraction): 0.000118
In toluene, 303.15 K
  solubility (mole fraction): 0.000146
In toluene, 313.15 K
  solubility (mole fraction): 0.000171
In toluene, 323.15 K
  solubility (mole fraction): 0.00019
In toluene, 333.15 K
  solubility (mole fraction): 0.000202
In toluene, 343.15 K
  solubility (mole fraction): 0.000208
